Assay results published in patent US20210338681A1, “COMBINATION THERAPIES” (SECURA BIO, INC., priority 2018, published 2021).
Entries after “also recorded” stand apart in the source; their conditions may differ.

What was measured:
[1] = test system: human macrophages; assay: Phagocytosis of CTV-labelled DLD-1 and Raji cells by human monocyte-derived macrophages, flow cytometry-based assay (Example 1); format: cell-based; conditions: FIG. 1
Protocol: PBMC were isolated using a density gradient from healthy donor blood samples. CD14+ monocytes were then separated using magnetic selection and differentiated into MO macrophages for 6 days in the presence of M-CSF and 3000 nM of duvelisib or vehicle (DMSO). Two cell lines positive for surface expression of CD47, DLD-1 (ATCC® CCL-221™) and Raji cells (ATCC® CCL-86™), were labelled with cell trace violet (CTV). These were then offered to the macrophage cultures in the presence of duvelisib or vehicle control for 4 hours to allow phagocytosis to occur. For the part of the assay where a CD47 blocking antibody and an opsonizing antibody were used, CD47 blocking antibody at 1 μg/ml (clone B6H12) and rituximab (for Raji cells) or cetuximab (for DLD-1 cells) at 1 μg/ml were added during the 4 hours co-culture. The effect of duvelisib on the capacity of macrophages to phagocytose target cells was determined in a flow cytometry-based assay.

[2] = test system: human macrophages; assay: Phagocytosis of CTV-labelled Raji cells by human monocyte-derived macrophages with anti-CD47 clone 5F9, flow cytometry-based assay (Example 2); format: cell-based; conditions: 3000 nM duvelisib during last 3 days of differentiation; CD47 blocking antibody clone 5F9 300 ng/ml, 2 hours; compared to duvelisib or anti-CD47 alone; FIG. 2
Protocol: PBMC were isolated using a density gradient from healthy donor blood samples. CD14+ monocytes were then separated using magnetic selection and differentiated into MO macrophages for 6 days in the presence of M-CSF. Duvelisib (3000 nM) or vehicle (DMSO) were added during the last 3 days of differentiation. Raji cells (ATCC® CCL-86™), which are positive for surface expression of CD47, were labelled with cell trace violet (CTV). These cells were then offered to the macrophage cultures in the presence of CD47 blocking antibody at 300 ng/ml (clone 5F9) for 2 hours to allow phagocytosis to occur. The effect of duvelisib on the capacity of macrophages to phagocytose target cells was determined in a flow cytometry-based assay.

C[C@H](Nc1ncnc2[nH]cnc12)c1cc2cccc(Cl)c2c(=O)n1-c1ccccc1 [duvelisib, (S)-3-(1-((9H-purin-6-yl)amino)ethyl)-8-chloro-2-phenylisoquinolin-1(2H)-one]
phagocytosis by human macrophages, duvelisib as a single agent ([1]; 3000 nM duvelisib vs vehicle (DMSO) during 6 days differentiation with M-CSF and 4 hours co-culture, target cells DLD-1 and Raji, two representative donors per condition): increases phagocytosis; also recorded: increasing phagocytosis | phagocytosis by human macrophages, duvelisib in combination with anti-CD47 (clone B6H12) and an opsonizing antibody ([1]; 3000 nM duvelisib, CD47 blocking antibody clone B6H12 1 μg/ml plus rituximab (Raji cells) or cetuximab (DLD-1 cells) 1 μg/ml during 4 hours co-culture): increases phagocytosis; also recorded: increasing phagocytosis | phagocytosis of Raji Burkitt's lymphoma cells by human macrophages, duvelisib in combination with anti-CD47 (clone 5F9) [2]: enhances phagocytosis; also recorded: increasing phagocytosis
